Assay results as given in patent US7888527B2 (University of Virginia Patent Foundation, priority 2004, dated 2011).

Assays:
human S1P4 receptor = biological target: T1, human S1P4 receptor (Homo sapiens, UniProt O95977); assay: [γ-35S]GTP binding assay, HEK293T membranes; assay type: biochemical; details: -log molar concentration giving 50% of maximal [γ-35S]GTP binding; ± S.E.M.; read-out: pEC50 S1P4 (converted)
T1 construct: expressed in transfected cells; host or cells: HEK293T, transient transfection; membranes
T1 sequence (O95977 1-384): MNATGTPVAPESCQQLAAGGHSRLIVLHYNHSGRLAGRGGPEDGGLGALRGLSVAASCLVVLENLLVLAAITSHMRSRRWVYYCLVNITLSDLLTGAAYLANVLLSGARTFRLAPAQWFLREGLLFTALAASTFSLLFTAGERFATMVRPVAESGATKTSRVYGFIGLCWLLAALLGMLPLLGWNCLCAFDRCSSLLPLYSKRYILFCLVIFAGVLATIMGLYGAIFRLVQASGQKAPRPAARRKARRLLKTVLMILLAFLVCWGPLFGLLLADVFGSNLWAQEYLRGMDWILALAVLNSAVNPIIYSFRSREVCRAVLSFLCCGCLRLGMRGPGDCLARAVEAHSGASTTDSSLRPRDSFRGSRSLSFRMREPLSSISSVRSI
Text: (§1) The appropriate receptor plasmid DNA (encoding human S1P1, human S1P2, human S1P3, human S1P4, human S1P5, human LPA1, human LPA2 or human LPA3 receptors) is mixed with equal amounts of expression plasmids encoding human Gi2α (for S1P3, a mutated (C352F) rat Gi2α is used), cow β1, and cow γ2 proteins, and these DNAs are used to transfect monolayers of HEK293T cells (where ‘T’ indicates expression of the SV-40 virus large T antigen) using the calcium phosphate precipitate method (7). After about 60 hours, cells are harvested, membranes prepared, aliquoted, and stored at −70° C. until use (8).
(§2) The [γ-^35S]GTP binding assay is performed as described previously (8). Membranes containing 1-5 μg of protein are incubated in 0.1 ml of binding buffer (in mM: HEPES/50, NaCl/100, MgCl2/10, pH 7.5) containing 5 μg of saponin, 10 μM GDP, 0.1 nM [γ-^35S]GTP (1200 Ci/mmol), and indicated lipid(s) for 30 min at 30° C. and collected using a Brandel Cell Harvester (Gaithersburg, Md.). Samples are then analyzed for bound radionuclide.
(§3) Statistical Analysis. The EC50 and IC50 values for all dose response curves were determined by nonlinear regression analysis of all data using the Graphpad Prism© program. The error associated with the data collected is reported as the standard error of the mean (S.E.M).

human S1P1 receptor [1] = biological target: T2, human S1P1 receptor (Homo sapiens, UniProt P21453); assay: [γ-35S]GTP binding assay, HEK293T membranes (agonism and Schild antagonism); assay type: biochemical; parameters: expressed in transfected cells; host or cells: HEK293T, transient transfection; membranes; details: for EC50: -log molar concentration giving 50% of maximal [γ-35S]GTP binding, ± S.E.M., read-out: pEC50 S1P1 (converted)
Text: as §1, §2
(§4) Briefly, nonlinear analysis of the best-fit line generated by plotting the negative log of the EC50 values obtained from agonist dose-response curves, in the absence and presence of varying concentrations of antagonist, was plotted against the concentration of antagonist to give the Kb value.
as §3

human S1P3 receptor [2] = biological target: T3, human S1P3 receptor (Homo sapiens, UniProt Q99500); assay: as above; assay type: biochemical; parameters: expressed in transfected cells; host or cells: HEK293T, transient transfection; membranes; key to Schild analysis flag on pKb S1P3: *: Based on Schild analysis, the antagonism observed was not competitive; details: for EC50: -log molar concentration giving 50% of maximal [γ-35S]GTP binding, ± S.E.M., read-out: pEC50 S1P3 (converted); for Agonist efficacy class S1P3: relative to S1P Emax
Text: as §1, §2, §4, §3

human S1P3 receptor [3] = biological target: T3, human S1P3 receptor; assay: [32P]S1P binding assay, HEK293T membranes; parameters: expressed in transfected cells; host or cells: HEK293T, transient transfection; membranes; details: read-out: pKi S1P3 (converted)
Experimental: (§5) [^32P]-S1P was prepared by incubating sphingosine and [γ-^32P]ATP with cell lysate from HEK293T cells transiently transfected with human sphingosine kinase type 2 DNA. The 200 μl reaction contained 0.025 mM sphingosine, 1 mCi [γ-^32P]ATP (7000 Ci/mmol) and kinase buffer (in mM: Mg(C2H3O2)2 (in 50 mM Tris, pH 7.5)/10, NaF/10, and semicarbizide/2). The reaction was initiated by the addition of 20 μg of cell lysate and incubated at 37° C. for at least 30 minutes. […] The organic layer was isolated and the extraction procedure repeated two additional times with the remaining aqueous fraction. The combined organic fractions were dried under a stream of nitrogen gas and resuspended in aqueous 0.1% fatty acid free BSA.
(§6) Bound ligand was separated from free ligand by rapid filtration and analyzed in a liquid scintillation counter.
as §3

human S1P1 receptor [4] = biological target: T2, human S1P1 receptor; assay: [32P]S1P binding assay, HEK293T membranes; parameters: expressed in transfected cells; host or cells: HEK293T, transient transfection; membranes; details: read-out: pKi S1P1 (converted)
Experimental: as §5, §6, §3

human S1P3 receptor [5] = biological target: T3, human S1P3 receptor; assay: Intracellular calcium mobilization, T24 cells transfected stably with human S1P3 receptor; assay type: cell-based; parameters: expressed in transfected cells; details: T24-S1P3 cells versus wild-type T24 cells
Experimental: (§7) […] monolayers are co-transfected with the human S1P1, S1P2, S1P3 receptor encoding DNAs and the pIRESpuro2 plasmid DNA (Clontech, San Jose, Calif.,) using either Lipofectamine 2000 (Invitrogen, Carlsbad, Calif.) or FuGENE 6 (Roche Applied Science, Indianapolis, Ind.). Clonal populations expressing the puromycin acetyltransferase gene are selected by addition of puromycin (Sigma-Aldrich, St. Louis, Mo.) to the culture media. T24 cells are grown in monolayers at 37° C. in a 5% CO2/95% air atmosphere in growth media consisting of: 95% DMEM/F-12 medium and 10% charcoal/dextran stripped FBS.
A FlexStation™ fluorimeter (Molecular Devices, Menlo Park, Calif.) was used to measure intracellular calcium in native T24 cells and T24 cells transfected stably with either human S1P2 or human S1P3 receptor DNA. Cells were seeded (˜50,000 cells/well) in 96-well, clear bottom black microplates (Corning Costar Corp.) and left overnight at 37° C. The cells were dye-loaded with 4 μM Fluo-4AM ester in a loading buffer (Hank's Balanced Salt Solution, […], containing 20 mM HEPES, 0.1% fatty acid free BSA, and 2.5 mM probenecid) for 30 minutes at 37° C. After washing cell monolayers three times with phosphate buffered saline, loading buffer was added and the cells exposed to sets of compounds for 3 minutes at 25° C. in the FlexStation™. In all cases, each concentration of every compound was tested in at least triplicate. […] The cells were washed with phosphate buffered saline and exposed to compounds immediately, as described above.
as §4

human S1P1 receptor [6] = biological target: T2, human S1P1 receptor; assay: Cell migration assay, T24 cells transfected stably with human S1P1 receptor; assay type: cell-based; parameters: expressed in transfected cells; details: 50 nM antagonist
Experimental: as §7
Cell migration assays are performed using modified Boyden chambers (tissue culture-treated, 24-mm diameter, 10-μm thickness, 8-μm pores, Transwell®; Costar Corp., Cambridge, Mass.) containing polycarbonate membranes that are coated on the underside with 0.1% gelatin. The underside of the polycarbonate membranes is rinsed once with migration media (DMEM/F12 without Phenol Red and 0.1% fatty acid free BSA) and then immersed in the lower chamber containing two milliliters of migration media. T24 cells transfected stably with human S1P1 receptor DNA were grown in DMEM/F12 media containing charcoal/dextran stripped FBS and 10 μg/ml puromycin to 100% confluence in 150×2.5 mm tissue culture plates and serum starved at least 12 hours. Serum-starved cells were removed from culture dishes with 10× Trypsin-EDTA (Hanks' balanced salt solution containing 5 mM EDTA and 25 mM HEPES, pH 7.2, and 0.1% trypsin; Invitrogen, San Diego, Calif.), suspended in migration buffer and collected by centrifugation at 130×g for 5 minutes. The supernatant fluid was removed by aspiration and cell pellet resuspended in migration media (10^6 cells/ml). […] The non-migrating cells in the upper chamber were removed by aspiration and the migratory cells attached to the bottom surface of the membrane were isolated by incubation in 10× Trypsin-EDTA for 1 min at room temperature and gently tapping the plate to dislodge cells from the membrane. The mass of migratory cells per membrane was evaluated by combining 100 μl of cell suspension with an equal volume of CyQuant dye solution (3.0 ml of 2× lysis buffer and 15 μl CyQuant dye), and the resulting fluorescence quantified using the FlexStation™ fluorimeter (Molecular Devices, Menlo Park, Calif.). Each determination represents the average of two individual migration chambers. […] The monolayer was washed three times with phosphate buffered saline and processed immediately for the cell migration assay, as described above.

S1P2 receptor = biological target: T4, S1P2 receptor (Homo sapiens, UniProt O95136); assay: [γ-35S]GTP binding assay, HEK293T membranes; assay type: biochemical; details: -log molar concentration giving 50% of maximal [γ-35S]GTP binding; ± S.E.M.; read-out: pEC50 S1P2 (converted)
T4 construct: expressed in transfected cells; host or cells: HEK293T, transient transfection; membranes
Text: as §1, §2, §3

human S1P5 receptor = biological target: T5, human S1P5 receptor (Homo sapiens, UniProt Q9H228); assay: [γ-35S]GTP binding assay, HEK293T membranes; assay type: biochemical; details: for EC50: -log molar concentration giving 50% of maximal [γ-35S]GTP binding, ± S.E.M., read-out: pEC50 S1P5 (converted); for Agonist efficacy class S1P5: relative to S1P Emax
T5 construct: expressed in transfected cells; host or cells: HEK293T, transient transfection; membranes
Text: as §1, §2, §3

T4 sequence (O95136 whole entry): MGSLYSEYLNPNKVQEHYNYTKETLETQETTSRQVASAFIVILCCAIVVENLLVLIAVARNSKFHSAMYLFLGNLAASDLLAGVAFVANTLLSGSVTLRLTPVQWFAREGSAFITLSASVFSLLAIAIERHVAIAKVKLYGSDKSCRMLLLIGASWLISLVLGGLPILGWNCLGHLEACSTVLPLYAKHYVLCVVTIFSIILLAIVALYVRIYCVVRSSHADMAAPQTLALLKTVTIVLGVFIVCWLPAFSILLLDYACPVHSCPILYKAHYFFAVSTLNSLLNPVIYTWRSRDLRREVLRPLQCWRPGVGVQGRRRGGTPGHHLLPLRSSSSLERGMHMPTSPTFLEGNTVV
T5 sequence (Q9H228 whole entry): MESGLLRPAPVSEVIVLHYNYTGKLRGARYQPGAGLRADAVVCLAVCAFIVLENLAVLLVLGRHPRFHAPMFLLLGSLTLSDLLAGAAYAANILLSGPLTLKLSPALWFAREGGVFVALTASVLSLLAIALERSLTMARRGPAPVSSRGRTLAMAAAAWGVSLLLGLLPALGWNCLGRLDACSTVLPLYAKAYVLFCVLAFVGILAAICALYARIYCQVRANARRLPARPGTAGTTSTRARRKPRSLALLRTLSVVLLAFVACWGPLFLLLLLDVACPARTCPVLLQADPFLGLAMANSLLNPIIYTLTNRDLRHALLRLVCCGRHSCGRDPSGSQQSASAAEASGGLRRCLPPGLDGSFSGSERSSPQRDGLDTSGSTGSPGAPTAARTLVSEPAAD
T2 sequence (P21453 whole entry): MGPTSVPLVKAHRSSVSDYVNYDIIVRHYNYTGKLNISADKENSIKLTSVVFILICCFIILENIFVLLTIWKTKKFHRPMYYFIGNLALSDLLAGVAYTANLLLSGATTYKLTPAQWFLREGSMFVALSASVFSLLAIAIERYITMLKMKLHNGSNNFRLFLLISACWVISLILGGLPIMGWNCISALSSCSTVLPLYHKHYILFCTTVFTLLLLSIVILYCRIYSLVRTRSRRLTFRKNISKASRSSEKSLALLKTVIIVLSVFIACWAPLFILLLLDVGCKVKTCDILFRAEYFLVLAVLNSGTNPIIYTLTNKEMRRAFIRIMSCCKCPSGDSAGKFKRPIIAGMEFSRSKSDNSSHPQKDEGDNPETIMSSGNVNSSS
T3 sequence (Q99500 whole entry): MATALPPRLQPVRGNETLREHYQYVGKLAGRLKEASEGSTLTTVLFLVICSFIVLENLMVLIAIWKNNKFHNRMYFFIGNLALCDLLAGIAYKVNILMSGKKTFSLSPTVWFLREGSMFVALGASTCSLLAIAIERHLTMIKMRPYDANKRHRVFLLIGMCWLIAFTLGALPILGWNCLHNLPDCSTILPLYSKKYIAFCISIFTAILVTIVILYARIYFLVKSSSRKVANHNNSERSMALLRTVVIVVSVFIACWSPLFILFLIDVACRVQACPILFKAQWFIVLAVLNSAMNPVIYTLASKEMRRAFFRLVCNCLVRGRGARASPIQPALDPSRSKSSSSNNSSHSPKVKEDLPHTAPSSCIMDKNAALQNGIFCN

Row | EC50 (human S1P4 receptor) | EC50 (human S1P1 receptor [1]) | EC50 (human S1P3 receptor [2]) | Ki (human S1P3 receptor [3]) | Ki (human S1P1 receptor [4]) | Blockade of VPC22277 (10 nM)-induced migration (human S1P1 receptor [6]) | EC50 (S1P2 receptor) | EC50 (human S1P5 receptor) | Kb (human S1P1 receptor [1]; read-out: pKb S1P1 (converted)) | Schild analysis flag on pKb S1P3 (human S1P3 receptor [2]) | Kb (human S1P3 receptor [2]; read-out: pKb S1P3 (converted)) | Agonist activity at the S1P1 receptor (human S1P1 receptor [1]) | SMILES | Calcium mobilization by compound alone (human S1P3 receptor [5]) | Agonist efficacy class S1P5 (human S1P5 receptor) | Agonist efficacy class S1P1 (human S1P1 receptor [1]; relative to S1P Emax) | Agonist efficacy class S1P3 (human S1P3 receptor [2])
1 | 155 nM | 4.07 nM | 2.24 nM | 7.59 nM | 1.1 nM | – | – | – | – | – | – | – | CCCCCCCCCCCCC/C=C/[C@@H](O)[C@@H](N)COP(=O)(O)O [Compound S1P, Sphingosine 1-phosphate, reference compound] | dose-dependent calcium mobilization was observed | – | – | –
2 | 1100 nM | – | – | – | 61.7 nM | Blockade | > 10000 nM | 135 nM | 135 nM | * | 10500 nM | – | CCCCCCc1cccc(NC(=O)[C@H](N)COP(=O)(O)O)c1 [VPC23031] | – | (wpa) (weak partial agonist activity (10-50% of S1P Emax)) | na (no agonist activity (<10% of S1P Emax)) | na (no agonist activity (<10% of S1P Emax))
3 | 851 nM | 81.3 nM | 1910 nM | – | – | – | > 10000 nM | > 10000 nM | – | – | – | agonists (or partial agonists) | CCCCCCCCCCc1cccc(NC(=O)[C@H](N)COP(=O)(O)O)c1 [VPC23069] | – | – | – | (wpa) (weak partial agonist activity (10-50% of S1P Emax))
4 | 1170 nM | 676 nM | – | – | – | – | > 10000 nM | – | – | – | – | agonists (or partial agonists) | CCCCCCCCCc1cccc(NC(=O)[C@H](N)COP(=O)(O)O)c1 [VPC23079] | – | na (no agonist activity (<10% of S1P Emax)) | – | na (no agonist activity (<10% of S1P Emax))
